Measurements published in patent publication US9079821B2, “Quinone based nitric oxide donating compounds” (NICOX S.A., priority 2011, dated 2015).

Experiment: Pharmacokinetic profile in rats (blood 15N-nitrite levels)
Assay type: in vivo, rat
Conditions: rat, in vivo, po, 30 mg/kg
Protocol: The absorption and in vivo NO-donating property of the compounds of the invention were assessed by the evaluation of blood ^15N-nitrite levels following oral administration.
Tested Compounds: • 5-(2,4,5-trimethyl-3,6-dioxocyclohexa-1,4-dienylpentyl nitrate-nitrogen-15 which corresponds to compound (1) containing nitrogen-15 (^15N-Compound (1)); • 5-(4,5-dimethoxy-2-methyl-3,6-dioxocyclohexa-1,4-dienyl)pentyl nitrate-nitrogen-15 which corresponds to compound (2) containing nitrogen-15 (^15N-Compound (2)); • 4-(2,4,5-trimethyl-3,6-dioxocyclohexa-1,4-dienyl)butyl nitrate-nitrogen-15 which corresponds to compound (3) containing nitrogen-15 (^15N-Compound (3)); • 4-(4,5-dimethoxy-2-methyl-3,6-dioxocyclohexa-1,4-dienyl)butyl nitrate-nitrogen-15 which corresponds to compound (4) containing nitrogen-15 (^15N-Compound (4)); • 10-(2,4,5-trimethyl-3,6-dioxocyclohexa-1,4-dienyl)decyl nitrate-nitrogen-15 which corresponds to compound (5) containing nitrogen-15 (^15N-Compound (5)); • 10-(4,5-dimethoxy-2-methyl-3,6-dioxocyclohexa-1,4-dienyl)decyl nitrate-nitrogen-15 which corresponds to compound (6) containing nitrogen-15 (^15N-Compound (6)); • 3-(3-(4,5-dimethoxy-2-methyl-3,6-dioxocyclohexa-1,4-dienyl)propoxy)propyl nitrate-nitrogen-15 which corresponds to compound (14) containing nitrogen-15 (^15N-Compound (14)); • 6-(2,4,5-trimethyl-3,6-dioxocyclohexa-1,4-dienyl)hexyl nitrate-nitrogen-15 which corresponds to compound (15) containing nitrogen-15 (^15N-Compound (15)); • 6-(4,5-dimethoxy-2-methyl-3,6-dioxocyclohexa-1,4-dienyl)hexyl nitrate-nitrogen-15 which corresponds to compound (16) containing nitrogen-15 (^15N-Compound (16)); • 11-(4,5-dimethoxy-2-methyl-3,6-dioxocyclohexa-1,4-dienyl)-undecane-1,2-diyl dinitrate-nitrogen-15 which corresponds to compound (17) containing nitrogen-15 (^15N-Compound (17)); • 8-(5-methoxy-2,4-dimethyl-3,6-dioxocyclohexa-1,4-dienyl)octyl nitrate-nitrogen—which corresponds to compound (19) containing nitrogen-15 (^15N-Compound (19)); • 2-(3-(4,5-dimethoxy-2-methyl-3,6-dioxocyclohexa-1,4-dienyl)propoxy)ethyl nitrate-nitrogen-15 which corresponds to compound (20) containing nitrogen-15 (^15N-Compound (20)); • 6-(3-methyl-1,4-dioxo-1,4-dihydronaphthalen-2-yl)hexyl nitrate-nitrogen-15 which corresponds to compound (23) containing nitrogen-15 (^15N-Compound (23)); • 3-(3-(3-methyl-1,4-dioxo-1,4-dihydronaphthalen-2-yl)propoxy)propyl nitrate-nitrogen-15 which corresponds to compound (25) containing nitrogen-15 (^15N-Compound (25)); • 6-(5-methoxy-2,4-dimethyl-3,6-dioxocyclohexa-1,4-dienyl)hexyl nitrate-nitrogen-15 which corresponds to compound (28) containing nitrogen-15 (^15N-Compound (28)); • 6-(4-methoxy-2,5-dimethyl-3,6-dioxocyclohexa-1,4-dienyl)hexyl nitrate-nitrogen-15 which corresponds to compound (29) containing nitrogen-15 (^15N-Compound (29)); • 8-(4-methoxy-2,5-dimethyl-3,6-dioxocyclohexa-1,4-dienyl)octyl nitrate-nitrogen-15 which corresponds to compound (32) containing nitrogen-15 (^15N-Compound (32)); • 8-(2,4,5-trimethyl-3,6-dioxocyclohexa-1,4-dienyl)octyl nitrate-nitrogen-15 which corresponds to compound (34) containing nitrogen-15 (^15N-Compound (34)); • 5-isorbide mononitrate containing nitrogen-15 (5-ISM^15N).
Cannulated SD rats were orally treated with ^15N-Compounds (6) at 30 mg/kg, 5-ISM^15N (30 mg/kg), or ^15N-Compounds (1)-(5), 14)-(17), (19), (20), (23), (25), (28), (29), (32), (34) at 30 mg/kg. At each time point (5, 10, 15, 30, 60, 180, 360 and 1440 min) blood was taken using heparin to avoid blood clotting. Blood samples were immediately protein crushed. Samples were analyzed by LC-MS/MS.
In Table 7 are reported ^15N-nitrite blood levels following oral administration of SD rats with 5-ISM^15N (30 mg/kg) or with ^15N-labeled corresponding compounds of the invention (30 mg/kg).

First: CC1=C(C)C(=O)C(CCCCCO[N+](=O)[O-])=C(C)C1=O [^15N-Compound (1)]
Second: CC1=C(C)C(=O)C(CCCCCCO[15N+](=O)[O-])=C(C)C1=O [^15N-Compound (15), 6-(2,4,5-trimethyl-3,6-dioxocyclohexa-1,4-dienyl)hexyl nitrate-nitrogen-15]
The “15N-nitrite AUC0-24” value of the first is lower: 1248 µM·min for the first, 2135 µM·min for the second.

Compared with `COC1=C(OC)C(=O)C(CCCCCO[15N+](=O)[O-])=C(C)C1=O` [^15N-Compound (2), 5-(4,5-dimethoxy-2-methyl-3,6-dioxocyclohexa-1,4-dienyl)pentyl nitrate-nitrogen-15], `COC1=C(OC)C(=O)C(CCCCCCO[N+](=O)[O-])=C(C)C1=O` [^15N-Compound (16), 6-(4,5-dimethoxy-2-methyl-3,6-dioxocyclohexa-1,4-dienyl)hexyl nitrate-nitrogen-15] is higher in “15N-nitrite AUC0-24” value: 1139 µM·min for the first, 1559 µM·min for the second.

First: CC1=C(C)C(=O)C(CCCCO[15N+](=O)[O-])=C(C)C1=O [^15N-Compound (3), 4-(2,4,5-trimethyl-3,6-dioxocyclohexa-1,4-dienyl)butyl nitrate-nitrogen-15]
Second: CC1=C(C)C(=O)C(CCCCCCCCCCO[15N+](=O)[O-])=C(C)C1=O [^15N-Compound (5), 10-(2,4,5-trimethyl-3,6-dioxocyclohexa-1,4-dienyl)decyl nitrate-nitrogen-15]
The “15N-nitrite AUC0-24” value of the first is lower: 1404 µM·min for the first, 1496 µM·min for the second.

Going from `COC1=C(OC)C(=O)C(CCCCO[N+](=O)[O-])=C(C)C1=O` [^15N-Compound (4), 4-(4,5-dimethoxy-2-methyl-3,6-dioxocyclohexa-1,4-dienyl)butyl nitrate-nitrogen-15] to `COC1=C(OC)C(=O)C(CCCOCCCO[15N+](=O)[O-])=C(C)C1=O` [^15N-Compound (14), 3-(3-(4,5-dimethoxy-2-methyl-3,6-dioxocyclohexa-1,4-dienyl)propoxy)propyl nitrate-nitrogen-15], the “15N-nitrite AUC0-24” value falls from 832 µM·min to 694 µM·min.

Compared with `CC1=C(C)C(=O)C(CCCCCO[N+](=O)[O-])=C(C)C1=O` [^15N-Compound (1)], `CC1=C(C)C(=O)C(CCCCCCO[15N+](=O)[O-])=C(C)C1=O` [^15N-Compound (15), 6-(2,4,5-trimethyl-3,6-dioxocyclohexa-1,4-dienyl)hexyl nitrate-nitrogen-15] is 3-fold higher in “15N-nitrite Tmax” value: 1 h for the first, 3 h for the second.

Compared with `COC1=C(OC)C(=O)C(CCCCCO[15N+](=O)[O-])=C(C)C1=O` [^15N-Compound (2), 5-(4,5-dimethoxy-2-methyl-3,6-dioxocyclohexa-1,4-dienyl)pentyl nitrate-nitrogen-15], `COC1=C(OC)C(=O)C(CCCCCCO[N+](=O)[O-])=C(C)C1=O` [^15N-Compound (16), 6-(4,5-dimethoxy-2-methyl-3,6-dioxocyclohexa-1,4-dienyl)hexyl nitrate-nitrogen-15] is 3-fold higher in “15N-nitrite Tmax” value: 1 h for the first, 3 h for the second.

Going from `CC1=C(C)C(=O)C(CCCCO[15N+](=O)[O-])=C(C)C1=O` [^15N-Compound (3), 4-(2,4,5-trimethyl-3,6-dioxocyclohexa-1,4-dienyl)butyl nitrate-nitrogen-15] to `CC1=C(C)C(=O)C(CCCCCCCCCCO[15N+](=O)[O-])=C(C)C1=O` [^15N-Compound (5), 10-(2,4,5-trimethyl-3,6-dioxocyclohexa-1,4-dienyl)decyl nitrate-nitrogen-15], the “15N-nitrite Tmax” value rises from 1 h to 3 h (3-fold).

Going from `COC1=C(OC)C(=O)C(CCCCO[N+](=O)[O-])=C(C)C1=O` [^15N-Compound (4), 4-(4,5-dimethoxy-2-methyl-3,6-dioxocyclohexa-1,4-dienyl)butyl nitrate-nitrogen-15] to `COC1=C(OC)C(=O)C(CCCOCCCO[15N+](=O)[O-])=C(C)C1=O` [^15N-Compound (14), 3-(3-(4,5-dimethoxy-2-methyl-3,6-dioxocyclohexa-1,4-dienyl)propoxy)propyl nitrate-nitrogen-15], the “15N-nitrite Tmax” value rises from 0.25 h to 1 h (4-fold).

`CC1=C(C)C(=O)C(CCCCCO[N+](=O)[O-])=C(C)C1=O` [^15N-Compound (1)] and `CC1=C(C)C(=O)C(CCCCCCO[N+](=O)[O-])=C(C)C1=O` [^15N-Compound (15), 6-(2,4,5-trimethyl-3,6-dioxocyclohexa-1,4-dienyl)hexyl nitrate-nitrogen-15] are within error of each other in Cmax: 3.35 ± 0.42 µM for the first, 3.65 ± 0.58 µM for the second.

Going from `COC1=C(OC)C(=O)C(CCCCCO[N+](=O)[O-])=C(C)C1=O` [^15N-Compound (2), 5-(4,5-dimethoxy-2-methyl-3,6-dioxocyclohexa-1,4-dienyl)pentyl nitrate-nitrogen-15] to `COC1=C(OC)C(=O)C(CCCCCCO[N+](=O)[O-])=C(C)C1=O` [^15N-Compound (16), 6-(4,5-dimethoxy-2-methyl-3,6-dioxocyclohexa-1,4-dienyl)hexyl nitrate-nitrogen-15], the Cmax rises from 1.92 ± 0.25 µM to 2.93 ± 0.49 µM (1.5-fold).

Compared with `CC1=C(C)C(=O)C(CCCCO[N+](=O)[O-])=C(C)C1=O` [^15N-Compound (3), 4-(2,4,5-trimethyl-3,6-dioxocyclohexa-1,4-dienyl)butyl nitrate-nitrogen-15], `CC1=C(C)C(=O)C(CCCCCCCCCCO[N+](=O)[O-])=C(C)C1=O` [^15N-Compound (5), 10-(2,4,5-trimethyl-3,6-dioxocyclohexa-1,4-dienyl)decyl nitrate-nitrogen-15] is 2.6-fold lower in Cmax: 4.82 ± 1.1 µM for the first, 1.89 ± 0.42 µM for the second.

First: COC1=C(OC)C(=O)C(CCCCO[N+](=O)[O-])=C(C)C1=O [^15N-Compound (4), 4-(4,5-dimethoxy-2-methyl-3,6-dioxocyclohexa-1,4-dienyl)butyl nitrate-nitrogen-15]
Second: COC1=C(OC)C(=O)C(CCCOCCCO[N+](=O)[O-])=C(C)C1=O [^15N-Compound (14), 3-(3-(4,5-dimethoxy-2-methyl-3,6-dioxocyclohexa-1,4-dienyl)propoxy)propyl nitrate-nitrogen-15]
The Cmax of the first is 2.2-fold higher: 3.33 ± 0.1 µM for the first, 1.52 ± 0.11 µM for the second.
